{"source": "patent US20100159449A1", "about": "“Continuous Assay Method for Measuring Receptor- and Ion Channel-Mediated Calcium Response and Subsequent Gene Expression” (NOACELL SCIENCE CO., LTD., priority 2006, published 2010)", "key": {"purine receptors [1]": {"system": "purine receptors", "experiment": "cAMP-responding (CRE) Renilla luciferase reporter assay in CHO cells expressing purine receptors", "format": "cell-based", "conditions": "ATP 10^-3 to 10^-9 M, six hours later, EnduRen substrate (FIG. 4)", "method": "(§1) To begin with, plasmids (pcDNA MtAEQ, pcDNA Gα16, and pGL3 CRE-Renilla) were introduced into CHO cells. […] The results are graphed in FIGS. 3 and 4.\n(§2) In detail, a CHO cell line (ATCC-deposited cells) that expresses purine receptors was seeded into 10 cm^2 Petri dishes at a 1.5×10^5 cells/ml cellular concentration.\n(§3) The next day, 2.2 μg Gα16 (pcDNA Gα16), 3 μg aequorin-expressing plasmids (pcDNA MtAequorin), and 3 μg cAMP-responding Renilla luciferase plasmids (pGL3 CRE-Renilla) were transfected into each Petri dish employing 18 μL of FuGENE® 6 (by Roche Diagnostics).\n(§4) The following day, 400 μL of trypsin/EDTA solution was added to the Petri dishes, and the cells were dissociated and suspended in 13 mL of DMEM/F12 FCS nutrient broth. […] Thereafter culturing was continued, and the results six hours later of measuring the activity of Renilla luciferase with the ARVO were diagrammed (FIG. 4). […] It will be understood that, with no induction of cAMP-mediated Renilla luciferase occurring, the purine receptors were Gq-coupled GPCRs."}, "purine receptors [2]": {"system": "purine receptors", "experiment": "aequorin-mediated calcium response (flash luminescence) in transfected CHO cells", "format": "cell-based", "conditions": "ATP 10^-3 to 10^-9 M, 30 seconds after addition, EnduRen or wildtype coelenterazine as substrate (FIG. 9)", "method": "as §1, §2, §3, §4\nWildtype coelenterazine and, as a stable substrate, EnduRen™ were employed as luminescent substrates for enzymes, and the continuous-measurement regimes were compared. Plasmids were introduced into CHO cells. […]"}, "[3]": {"target": "dopamine receptors (D2RS) (Homo sapiens, UniProt P14416)", "sequence (P14416 1-414 isoform P14416-2)": "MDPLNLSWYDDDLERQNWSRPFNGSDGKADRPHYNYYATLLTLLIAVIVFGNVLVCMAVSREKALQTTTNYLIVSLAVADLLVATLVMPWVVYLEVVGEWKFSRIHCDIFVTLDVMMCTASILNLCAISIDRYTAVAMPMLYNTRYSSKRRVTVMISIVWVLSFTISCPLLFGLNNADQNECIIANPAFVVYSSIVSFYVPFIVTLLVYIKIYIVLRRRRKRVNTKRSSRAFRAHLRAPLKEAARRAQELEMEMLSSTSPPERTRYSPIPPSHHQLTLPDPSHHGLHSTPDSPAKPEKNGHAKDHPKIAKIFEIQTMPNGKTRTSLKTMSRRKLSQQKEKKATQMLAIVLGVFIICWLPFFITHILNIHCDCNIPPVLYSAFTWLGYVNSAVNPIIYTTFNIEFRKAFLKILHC", "conditions": "D2RS-expressing CHO cells; dopamine 10^-3 to 10^-9 M; following day forskolin added, six hours culturing (FIG. 8)", "experimental": "To begin with, plasmids were introduced into dopamine-receptor (D2RS) expressing cells. Following an overnight culturing, EnduRen™ was added as a substrate, the combination was cultivated four hours, and from 10^−3 to 10^−9 M sample (dopamine) was added.\nIn detail, dopamine receptors (D2RS) were transfected into a CHO cell line (ATCC-deposited cells), and, in the same manner as in Embodiment 1, Gα16, aequorin-expressing plasmids, and cAMP-responding Renilla luciferase plasmids were transfected into the stably expressing cell line and the cell suspension solution was adjusted.\nThe following day, 10 μL of 10^−5 M forskolin was added, and culturing was continued for six hours. The results of measuring the activity of Renilla luciferase were diagrammed (FIG. 8). In FIG. 8, the vertical axis indicates the per-second luminescent intensity (count per second), and the horizontal axis, the dopamine concentration."}, "[4]": {"target": "serotonin receptor (5HT2A) (Homo sapiens, UniProt P28223)", "sequence (P28223 whole entry, species assumed)": "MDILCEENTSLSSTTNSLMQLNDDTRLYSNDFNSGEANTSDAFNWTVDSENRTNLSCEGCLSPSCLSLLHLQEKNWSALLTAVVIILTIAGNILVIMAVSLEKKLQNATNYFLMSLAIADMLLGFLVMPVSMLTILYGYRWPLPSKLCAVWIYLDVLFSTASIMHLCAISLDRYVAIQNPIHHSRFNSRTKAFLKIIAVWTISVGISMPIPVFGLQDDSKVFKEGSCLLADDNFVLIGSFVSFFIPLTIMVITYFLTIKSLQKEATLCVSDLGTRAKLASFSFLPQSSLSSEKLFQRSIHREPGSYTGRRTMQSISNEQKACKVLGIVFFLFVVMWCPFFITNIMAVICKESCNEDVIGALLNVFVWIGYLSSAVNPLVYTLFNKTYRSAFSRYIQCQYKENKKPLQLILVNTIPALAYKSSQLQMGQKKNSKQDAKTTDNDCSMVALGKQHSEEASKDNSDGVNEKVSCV", "experiment": "cAMP-responding (CRE) Renilla luciferase reporter assay in serotonin-receptor expressing CHO cells", "format": "cell-based", "conditions": "5HT2A-expressing CHO cells; serotonin 2.5x10^-6 to 2.5x10^-12 M; culturing six hours; EnduRen substrate (FIG. 6)", "experimental": "To begin with, plasmids (pcDNA MtAEQ, pcDNA Gα16, and pGL3 CRE-Renilla) were introduced into serotonin-receptor (5HT2A) expressing cells. Following an overnight culturing, EnduRen™ was added as a substrate, the combination was cultivated four hours, and from 2.5×10^−6 to 2.5×10^−12 M sample (serotonin) was added. For 30 seconds directly post-addition, the aequorin-mediated luminescence was continuously measured.\nIn detail, a serotonin receptor (5HT2A) was transfected into a CHO cell line (ATCC-deposited cells), and, in the same manner as in Embodiment 1, Gα16, aequorin-expressing plasmids, and cAMP-responding Renilla luciferase plasmids were transfected into the stably expressing cell line and the cell suspension solution was adjusted.\nAs a stable substrate, 30 μm EnduRen™ was added, and after four hours' culturing, 90 μL of the cell suspension solution was added into each well of a 96-well plate into which 10 μL serotonin hydrochloride as serotonin-receptor ligands had been added at 2.5×10^−6 to 2.5×10^−12 M concentration. Results of measuring the change in luminescent intensity for 30 seconds immediately following the suspension addition, employing the ARVO luminometer by Berthold Technologies GmbH, were diagrammed (FIG. 5). In FIG. 5, the vertical axis indicates the per-second luminescent intensity (count per second), and the horizontal axis, the measuring time (seconds). […]"}}, "note": "Structures can show the parent of a compound that is named as a salt."}
{"smiles": "Nc1ncnc2c1ncn2[C@@H]1O[C@H](COP(=O)([O-])OP(=O)([O-])OP(=O)(O)O)[C@@H](O)[C@H]1O.O.[Na+].[Na+]", "note": "[ATP, adenosine 5′-triphosphate disodium hydrate]", "values": [{"measurement": "induction of cAMP-mediated Renilla luciferase", "setting": "purine receptors [1]", "result": "no induction"}, {"measurement": "ATP-stimulated calcium response by aequorin luminescence", "setting": "purine receptors [2]", "result": "calcium response can be measured"}]}
{"smiles": "Cl.NCCc1ccc(O)c(O)c1", "note": "[dopamine, dopamine hydrochloride]", "values": [{"measurement": "forskolin-stimulated activity of Renilla luciferase", "setting": "[3]", "result": "declined"}]}
{"smiles": "NCCc1c[nH]c2ccc(O)cc12", "note": "[serotonin, serotonin hydrochloride]", "values": [{"measurement": "cAMP-mediated increase in (induction of) Renilla luciferase", "setting": "[4]", "result": "increase in (induction of) Renilla luciferase was confirmed"}]}
